Test results as given in publication PMC12035797, “Peptidomimetics Activating the Proteasome: A New Perspective for Parkinson’s Treatment” (Journal of Medicinal Chemistry, 2025).

Experiments:
[1] = tested on: T1, proteasome in HEK293T cell lysate; assay: Proteasome activity in the HEK293T cell lysate, Suc-LLVY-AMC; format: biochemical, human
T1 construct: endogenous in cells; host or cells: HEK293T cell lysate
Procedure: To assess whether activators are able to stimulate the proteasome in the cellular environment, we conducted experiments using the HEK293T cell lysate. […] The experiment was carried out as it was described.[25] Briefly, HEK293T cells were lysed, and the lysate was treated with the modulators at a concentration of 1, 2.5, 5, 10, and 25 μM, only in the case of modulators with the TAT or 6R sequence attached were the concentrations 0.5, 1, 2.5, 5, and 10 μM. The proteasome activity was probed using Suc-LLVY-AMC substrate. One μM bortezomib was used as a negative control. All experiments were performed in at least three independent replicates. One-way ANOVA with Tukey’s post-hoc test was used to determine statistical significance.

[2] = tested on: endogenous α-synuclein in primary cortical cultures; assay: Endogenous α-synuclein level in primary cortical cultures (Simple Western Jess); format: cell-based, mouse; settings: 2.5 μM, 7 days; statistical significance only for 1g
Procedure: The effectiveness of the compounds has also been examined by using proteins as substrates. By means of SDS-PAGE electrophoresis, we checked the extent to which model proteins were digested by the 20S proteasome alone and after its stimulation by 10 μM modulators. […] After incubation with the enzyme in the presence of each modulator, less than 40% of synuclein remained. […] All animal experiments were performed following the protocols evaluated and approved by the Laboratory Animal Centre of the University of Helsinki (Ethics Approval License KEK24-013) and in accordance with the European Community Guidelines (Directive 2010/63/EU). […] The viability and number of neuronal cells were calculated automatically in an Automated Cell Counter (Bio-Rad), plated at a density of 1,000,000 cells per well on 6-well plates and cultured in Neurobasal A Medium (Thermo Fisher Scientific (Gibco), #12349015, Waltham, MA, USA) supplemented with GlutaMAX (Thermo Fisher Scientific (Gibco) #A1286001, Waltham, MA, USA), B-27 Supplement (Thermo Fisher Scientific (Gibco), #17504001, Waltham, MA, USA), and 200 ng/mL Primocin (Invitrogen, ant-pm-1, San Diego, CA, USA). […] Protein concentrations in the cell lysates were determined using a bicinchoninic acid (BCA) assay (Sigma-Aldrich, 3B9643-1L-KC, MO, USA) according to the manufacturer’s instructions. […]

[3] = target: T2, human 20S proteasome, ChT-L peptidase; assay: Chymotrypsin-like (ChT-L) activity of h20S probed with Suc-LLVY-AMC; format: biochemical
T2 construct: human proteasome isolated from erythrocytes; from tissue; host or cells: human erythrocytes
Procedure: To assess the influence of substitutions increasing proteolytic stability on the modulators’ capacity to stimulate chymotrypsin-like, trypsin-like, and caspase-like activity of h20S, we used classic fluorogenic substrates: Suc-LLVY-AMC, Boc-LRR-AMC, and Z-LLE-AMC, respectively.
The effect of all synthesized peptidomimetics on the catalytic activity of the proteasome was tested using a human proteasome isolated from erythrocytes. Suc-LLVY-AMC, Boc-LRR-AMC, and Z-LLE-AMC fluorogenic substrates (Bachem, Bubendorf, Switzerland) were used for assessment of the chymotrypsin-, trypsin-, and caspase-like activities, respectively. A homemade FRET-type substrate Dabcyl-EDANS (Lys(Dabcyl)-[…]EDANS)-Gly)[26] was used as an additional probe. Stock solutions of the substrates and tested peptidomimetics were prepared in dimethyl sulfoxide (DMSO), ensuring that the final concentration of DMSO in all samples remained consistent at 2%. The small fluorogenic substrates were used at a final concentration of 100 μM, while Dabcyl-EDANS was prepared at a final concentration of 15 μM. […] Activity tests were conducted in 96-well plates using 50 mM Tris/HCl, pH 8.0, as an assay buffer. The final concentration of h20S proteasome was adjusted to 0.002 mg/mL (2.8 nM). The fluorescence of released aminomethylcoumarin (AMC) was monitored at 460 nm (λex was 380 nm), while the hydrolysis of Dabcyl-EDANS was detected by measuring emission at 493 nm (λex was set at 335 nm). Fluorescence measurements were taken continuously every 2 min over a 60 min period at 37 °C using a Tecan Infinite M200Pro spectrofluorometer (Tecan Trading AG, Männedorf, Switzerland). All activity assays were performed in at least three independent replicates. The relative activity was calculated in relation to the catalytic activity of the vehicle (DMSO)-treated latent proteasome, which was regarded as 100%. Statistical analysis was performed using the one-way ANOVA followed by Tukey’s post-hoc test. P-value <0.05 was considered statistically significant.

With `C[C@@H](O)[C@H](NC(=O)[C@H](Cc1ccccc1)NC(=O)[C@H](Cc1ccc(O)cc1)NC(=O)CN(CCCCN)C(=O)[C@H](CCCNC(=N)N)NC(=O)[C@H](CCCNC(=N)N)NC(=O)[C@H](CCCNC(=N)N)NC(=O)[C@H](CCC(N)=O)NC(=O)[C@H](CCCNC(=N)N)NC(=O)[C@H](CCCNC(=N)N)NC(=O)[C@H](CCCCN)NC(=O)[C@H](CCCCN)NC(=O)[C@@H](N)CCCNC(=N)N)C(=O)NCC(=O)N[C@@H](CO)C(=O)N[C@@H](CCCCN)C(=O)N[C@@H](CC(=O)O)C(=O)N[C@@H](Cc1c[nH]c2ccccc12)C(=O)N[C@@H](CCCNC(=N)N)C(=O)N[C@@H](CO)C(=O)N[C@@H](Cc1ccc(O)cc1)C(=O)N[C@@H](Cc1ccc(O)cc1)C(=O)N[C@@H](CO)C(=O)O` [1f] the “activation of the proteasome in HEK293T cell lysate” value ([1]; 5 μM) was “approximately 4 fold”, the “efficacy in HEK293T cell lysate” value ([1]; compared with 1a) was “higher efficacy than their parent compound 1a” and the “effect on endogenous α-synuclein in primary cortical cultures” value [2] was “able to reduce the amount of endogenous α-synuclein”. The EC50 ([3]; Suc-LLVY-AMC, n = 6, EC50 = concentration causing 50% growth of activity vs vehicle control) was 540 ± 100 nM, the “stimulation of proteasome activity” value ([3]; as summed up in Conclusions, substrate not named there) was “approximately 17 times” and the “stimulation of the ChT-L peptidase” value ([3]; at 1 μM concentration, Suc-LLVY-AMC) was “approximately 16 fold”.
